Legend:
[1] = Compounds' extinction rates in human liver S9; assay type: in vitro ADME; conditions: human liver S9 0.5 mg protein/mL, compound 1 μmol/L, 37° C.
Experimental: (3) Measurement of the Compounds' Extinction Rates:
To a potassium phosphate buffer solution (50 mmol/L, pH […]) containing NADPH production system (formed of 3.3 mmol/L MgCl2, 3.3 mmol/L glucose-6-phosphate, 1.3 mmol/L β-NAPD^+ and 0.4 unit/mL glucose-6-phosphate dehydrogenase), each test compound was added (in which occasion the final concentration was made 1 μmol/L) and incubated at 37° C. for 2 minutes. After the incubation, a suspension of human liver S9 (supernatant fraction obtained by centrifugation of crushed human liver cells at 9000×g) in potassium phosphate buffer solution was added to a final concentration of 0.5 mg protein/mL. This liquid reaction mixture was incubated at 37° C. for 5 minutes, to which 4 volume times thereof of acetonitrile was added, mixed, and cooled with ice. After the cooling with ice, the mixture was centrifuged (2000×g, 10 min.) and a part of the supernatant was recovered and analyzed with LSIMS/MS to calculate the residual ratio of unchanged substance in the reaction solution. The results are shown in the following Table B concurrently with the results of above (2) measurement of TNF-α production-inhibiting activity.

[2] = tested on: TNF-α production in THP-1 cells; test: TNF-α production-inhibiting activity in LPS-stimulated THP-1 cells; assay type: cell-based; conditions: Homo sapiens, 2 hours, ELISA
Experimental: (2) Measurement of TNF-α Production-Inhibiting Activity:
THP-1 (purchased from Dainippon Pharmaceuticals Co.) which are human-derived cultured cells, were suspended in RPMI1640 culture medium (10% fetal bovine serum, containing 100 units/mL penicillin) (1×10^5 cells/mL). Onto a 24-well culture plate, 1.6 mL of the THP-1 cell suspension was inoculated, and further 0.2 mL of the test substance as dissolved in RPM11640 culture medium and 0.2 mL of LPS (E. Coli 055: B5-derived, dissolved in RPM11640 culture medium, Difco) at a concentration of 10 μg/mL were added, followed by 2 hours' cultivation under the conditions of 37° C. and 5% CO2. The supernatant obtained upon centrifugation (500×g, 5 min.) was assayed with ELISA (Amersham Bioscience, TNF-α: Human, ELISA Biotrak System) to quantify TNF-α. The concentration of each test substance required to inhibit TNF-α production by 50% (IC50) was determined as follows. First, TNF-α production inhibition (%) values at various concentrations were determined by the following formula: […]
The TNF-α production inhibition (%) obtained by the above formula and the concentration of the test substance in that occasion were computed on Prism 4 for Windows Ver 4.02 (Graph Pad Software, Inc.) to calculate IC50 value.

Parent compound remaining after 5 min in human liver S9 (%) [1] | IC50 [2] | Compound
24.1% | 28.5 nM | COc1ccc(-c2noc(NC(=O)Cc3ccccc3Cl)c2-c2ccncn2)c(F)c1 [Compound B-6, 5-[(2-Chlorophenyl)acetylamino]-3-(2-fluoro-4-methoxyphenyl)-4-(4-pyrimidinyl)isoxazole]
20.4% | 32.1 nM | O=C(Cc1ccccc1Cl)Nc1onc(-c2ccc(F)cc2F)c1-c1ccncn1 [Compound B-4, 5-[(2-Chlorophenyl)acetylamino]-3-(2,4-difluorophenyl)-4-(4-pyrimidinyl)isoxazole]
21.2% | 36.7 nM | Cc1cccc(-c2noc(NC(=O)Cc3ccccc3Cl)c2-c2ccncn2)c1 [Compound B-7, 5-[(2-Chlorophenyl)acetylamino]-3-(3-methylphenyl)-4-(4-pyrimidinyl)isoxazole]
43.6% | 49.2 nM | Cc1cccc(-c2noc(NC(=O)Cc3ccccc3Br)c2-c2ccncn2)c1 [Compound B-8, 5-[(2-Bromophenyl)acetylamino]-3-(3-methylphenyl)-4-(4-pyrimidinyl)isoxazole]
25.5% | 45.5 nM | Cc1cccc(-c2nn(C)c(COC(=O)c3ccccc3)c2-c2ccncc2)c1 [Compound B-22]
23.3% | 52.9 nM | Cc1cccc(-c2noc(NC(=O)CCc3ccccc3C)c2-c2ccncc2)c1 [Compound B-15, 3-(3-Methylphenyl)-5-[(2-methylphenyl)propionylamino]-4-(4-pyridyl)isoxazole]
58.0% | 78.1 nM | Cc1cc(-c2noc(NC(=O)Cc3ccccc3)c2-c2ccncc2)ccc1F [Compound B-17, 3-(4-Fluoro-3-methylphenyl)-5-(phenylacetylamino)-4-(4-pyridyl)isoxazole]
52.6% | 13.7 nM | Cc1cc(-c2noc(NC(=O)Cc3ccccc3C)c2-c2ccncn2)ccc1F [Compound B-13, 3-(3-Methyl-4-fluorophenyl)-5-[(2-methylphenyl)acetylamino]-4-(4-pyrimidinyl)isoxazole]
17.6% | 65.5 nM | Cc1cccc(-c2noc(NC(=O)CCc3ccccc3)c2-c2ccncc2)c1 [Compound B-14, 3-(3-Methylphenyl)-5-(3-phenylpropionylamino)-4-(4-pyridyl)isoxazole]
20.1% | 66 nM | Cc1cc(-c2noc(NC(=O)CCc3ccccc3)c2-c2ccncc2)ccc1F [Compound B-19, 3-(4-Fluoro-3-methylphenyl)-5-(3-phenylpropionylamino)-4-(4-pyridyl)isoxazole]

The remaining lines, values behind:

Compound | Parent compound remaining after 5 min in human liver S9 (%) [1] | IC50 [2]
O=C(Cc1c(F)cccc1Cl)Nc1onc(-c2ccc(F)cc2)c1-c1ccncn1 [Compound B-2, 5-[(2-Chloro-6-fluorophenyl)acetylamino]-3-(4-fluorophenyl)-4-(4-pyrimidinyl)isoxazole] | 16.1% | 67.9 nM
Cc1ccc(F)c(-c2noc(NC(=O)Cc3ccccc3)c2-c2ccncn2)c1 [Compound B-11, 3-(2-Fluoro-5-methylphenyl)-5-(phenylacetylamino)-4-(4-pyrimidinyl)isoxazole] | 39.8% | 90.5 nM
CCCn1nc(-c2ccc(F)cc2)c(-c2ccncc2)c1C(=O)OCc1ccccc1Cl [Compound B-20] | 77.0% | 83.3 nM
CCn1nc(-c2ccc(F)cc2)c(-c2ccncn2)c1C(=O)OCc1ccc(Cl)cc1Cl [Compound B-21] | 56.4% | 61.5 nM
Cc1cccc(CC(=O)Nc2onc(-c3cccc(C)c3)c2-c2ccncn2)c1 [Compound B-10, 3-(3-Methylphenyl)-5-[(3-methylphenyl)acetylamino]-4-(4-pyrimidinyl)isoxazole] | 38.5% | 152 nM
COc1cccc(CC(=O)Nc2onc(-c3ccc(F)c(C)c3)c2-c2ccncn2)c1 [Compound B-12, 5-[(3-Methoxyphenyl)acetylamino]-3-(3-methyl-4-fluorophenyl)-4-(4-pyrimidinyl)isoxazole] | 33.1% | 52.6 nM
O=C(Cc1ccccc1Cl)Nc1onc(-c2ccc(Cl)cc2)c1-c1ccncn1 [Compound B-3, 3-(4-Chlorophenyl)-5-[(2-chlorophenyl)acetylamino]-4-(4-pyrimidinyl)isoxazole] | 53.1% | 48.7 nM
Cc1cccc(-c2noc(NC(=O)Cc3ccccc3C)c2-c2ccncn2)c1 [Compound B-9, 3-(3-Methylphenyl)-5-[(2-methylphenyl)acetylamino]-4-(4-pyrimidinyl)isoxazole] | 59.9% | 13.4 nM
Cc1ccc(F)c(-c2noc(NC(=O)CCc3cccc(Cl)c3)c2-c2ccncc2)c1 [Compound B-16, 5-[(3-Chlorophenyl)propionylamino]-3-(2-fluoro-5-methyl-phenyl)-4-(4-pyridyl)isoxazole] | 50.5% | 58.1 nM
Cc1cc(-c2noc(NC(=O)Cc3ccccc3Cl)c2-c2ccncc2)ccc1F [Compound B-18, 5-[(2-Chlorophenyl)acetylamino]-3-(4-fluoro-3-methylphenyl)-4-(4-pyridyl)isoxazole] | 59.7% | 85.2 nM
O=C(Cc1ccccc1Cl)Nc1onc(-c2ccc(F)cc2)c1-c1ccncn1 [Compound B-1, 5-[(2-Chlorophenyl)acetylamino]-3-(4-fluorophenyl)-4-(4-pyrimidinyl)isoxazole] | 5.8% | 36.1 nM
Cc1cccc(CC(=O)Nc2onc(-c3ccc(F)cc3F)c2-c2ccncn2)c1 [Compound B-5, 3-(2,4-Difluorophenyl)-5-[(3-methylphenyl)acetylamino]-4-(4-pyrimidinyl)isoxazole] | 46.6% | 139 nM
CCn1nc(-c2cccc(C)c2)c(-c2ccncc2)c1COC(=O)c1ccccc1 [Compound B-23] | 28.3% | 26.5 nM

— patent publication US20090192164A1, “Treating agent of inflammatory bowel disease” (ASKA Pharmaceutical Co., Ltd., priority 2006, published 2009)
